Reference: ChEMBL document CHEMBL4396913, “Synthesis and biological evaluation of hybrid quinolone-based quaternary ammonium antibacterial agents” (Eur J Med Chem, 2019)
≈ marks a conversion by molar mass, not a printed value.

Key:
Bacillus spizizenii [1] = test: Bactericidal activity against Bacillus subtilis ATCC 6633 cultured in MH medium assessed as reduction in bacterial survival incubated for 48 hrs by microbroth dilution method; format: functional; details: ATCC 6633, 48 h
Pseudomonas aeruginosa [2] = test: Bactericidal activity against Pseudomonas aeruginosa ATCC 9027 cultured in MH medium assessed as reduction in bacterial survival incubated for 48 hrs by microbroth dilution method; format: functional; details: ATCC 9027, 48 h
Staphylococcus aureus [3] = test: Bactericidal activity against methicillin resistant Staphylococcus aureus 6347 cultured in MH medium assessed as reduction in bacterial survival incubated for 48 hrs by microbroth dilution method; format: functional; details: Staphylococcus aureus, 6347, 48 h
Serratia marcescens [4] = test: Bactericidal activity against Serratia marcescens ATCC 12795 cultured in MH medium assessed as reduction in bacterial survival incubated for 48 hrs by microbroth dilution method; format: functional; details: ATCC 12795, 48 h
Escherichia coli [5] = test: Bactericidal activity against Escherichia coli ATCC 8739 cultured in MH medium assessed as reduction in bacterial survival incubated for 48 hrs by microbroth dilution method; format: functional; details: ATCC 8739, 48 h
[6] = test system: Staphylococcus epidermidis; test: Bactericidal activity against Staphylococcus epidermidis ATCC 14990 cultured in MH medium assessed as reduction in bacterial survival incubated for 48 hrs by microbroth dilution method; format: functional; details: ATCC 14990, 48 h
Proteus vulgaris [7] = test: Bactericidal activity against Proteus vulgaris NCTC 4635 cultured in MH medium assessed as reduction in bacterial survival incubated for 48 hrs by microbroth dilution method; format: functional; details: NCTC 4635, 48 h
HEK293 [8] = test: Cytotoxicity against human HEK293 cells assessed as changes in cell morphology upto 20 uM incubated for 72 hrs by MTT assay; format: cell-based; details: hek293, 72 h
[9] = Lipophilicity, log k of the compound at 100 ug/ml by micellar electrokinetic chromatography; format: physicochemical
Escherichia coli [10] = test: Antibacterial activity against […] Escherichia coli ATCC 8739 assessed as reduction in bacterial growth incubated for 48 hrs in presence of 50 ug/ml […], PAbetaN by microbroth dilution method; format: functional; details: ATCC 8739, 48 h
Proteus vulgaris [11] = test: Antibacterial activity against Proteus vulgaris NCTC 4635 cultured in MH medium assessed as reduction in bacterial growth incubated for 48 hrs by microbroth dilution method; format: functional; details: NCTC 4635, 48 h
[12] = test system: Staphylococcus epidermidis; test: Antibacterial activity against methicillin resistant Staphylococcus epidermidis ATCC 13199 cultured in MH medium assessed as reduction in bacterial growth incubated for 48 hrs by microbroth dilution method; format: functional; details: ATCC 13199, 48 h
Pseudomonas aeruginosa [13] = test: Antibacterial activity against Pseudomonas aeruginosa ATCC 9027 cultured in MH medium assessed as reduction in bacterial growth incubated for 48 hrs by microbroth dilution method; format: functional; details: ATCC 9027, 48 h
Enterococcus hirae [14] = test: Antibacterial activity against Enterococcus hirae ATCC 1052 cultured in BHI medium assessed as reduction in bacterial growth incubated for 48 hrs by microbroth dilution method; format: functional; details: ATCC 1052, 48 h
Bacillus spizizenii [15] = test: Antibacterial activity against Bacillus subtilis ATCC 6633 cultured in MH medium assessed as reduction in bacterial growth incubated for 48 hrs by microbroth dilution method; format: functional; details: ATCC 6633, 48 h
[16] = test system: Staphylococcus epidermidis; test: Antibacterial activity against Staphylococcus epidermidis ATCC 14990 cultured in MH medium assessed as reduction in bacterial growth incubated for 48 hrs by microbroth dilution method; format: functional; details: ATCC 14990, 48 h
Staphylococcus aureus [17] = test: Antibacterial activity against Staphylococcus aureus ATCC 6538 cultured in MH medium assessed as reduction in bacterial growth incubated for 48 hrs by microbroth dilution method; format: functional; details: ATCC 6538, 48 h
Escherichia coli [18] = test: Antibacterial activity against Escherichia coli ATCC 8739 cultured in MH medium assessed as reduction in bacterial growth incubated for 48 hrs by microbroth dilution method; format: functional; details: ATCC 8739, 48 h
Staphylococcus aureus [19] = test: Antibacterial activity against methicillin resistant Staphylococcus aureus N315 cultured in MH medium assessed as reduction in bacterial growth incubated for 48 hrs by microbroth dilution method; format: functional; details: N315, 48 h
Serratia marcescens [20] = test: Antibacterial activity against Serratia marcescens ATCC 12795 cultured in MH medium assessed as reduction in bacterial growth incubated for 48 hrs by microbroth dilution method; format: functional; details: ATCC 12795, 48 h
Staphylococcus aureus [21] = test: Bactericidal activity against Staphylococcus aureus ATCC 6538 cultured in MH medium assessed as reduction in bacterial survival incubated for 48 hrs by microbroth dilution method; format: functional; details: ATCC 6538, 48 h
Streptococcus pneumoniae [22] = test: Antibacterial activity against Streptococcus pneumoniae cultured in MH medium assessed as reduction in bacterial growth incubated for 48 hrs by microbroth dilution method; format: functional
Enterococcus hirae [23] = test: Bactericidal activity against Enterococcus hirae ATCC 1052 cultured in BHI medium assessed as reduction in bacterial survival incubated for 48 hrs by microbroth dilution method; format: functional; details: ATCC 1052, 48 h
Escherichia coli [24] = test: Bactericidal activity against […] Escherichia coli ATCC 8739 assessed as reduction in bacterial survival incubated for 48 hrs in presence of 50 ug/ml […], PAbetaN by microbroth dilution method; format: functional; details: ATCC 8739, 48 h
[25] = test system: Staphylococcus epidermidis; test: Bactericidal activity against methicillin resistant Staphylococcus epidermidis ATCC 13199 cultured in MH medium assessed as reduction in bacterial survival incubated for 48 hrs by microbroth dilution method; format: functional; details: ATCC 13199, 48 h
Staphylococcus aureus [26] = test: Bactericidal activity against methicillin resistant Staphylococcus aureus N315 cultured in MH medium assessed as reduction in bacterial survival incubated for 48 hrs by microbroth dilution method; format: functional; details: N315, 48 h
HEK293 [27] = test: Cytotoxicity against human HEK293 cells assessed as cell viability upto 20 uM incubated for 72 hrs by MTT assay; format: cell-based; details: hek293, 72 h
Staphylococcus aureus [28] = test: Antibacterial activity against methicillin resistant Staphylococcus aureus 6347 cultured in MH medium assessed as reduction in bacterial growth incubated for 48 hrs by microbroth dilution method; format: functional; details: Staphylococcus aureus, 6347, 48 h
Streptococcus pneumoniae [29] = test: Bactericidal activity against Streptococcus pneumoniae cultured in MH medium assessed as reduction in bacterial survival incubated for 48 hrs by microbroth dilution method; format: functional

Row | Structure (SMILES) | MBC (Bacillus spizizenii [1]) [µg/mL] | MBC (Pseudomonas aeruginosa [2]) [µg/mL] | MBC (Staphylococcus aureus [3]) [µg/mL] | MBC (Serratia marcescens [4]) [µg/mL] | MBC (Escherichia coli [5]) [µg/mL] | MBC [6] [µg/mL] | MBC (Proteus vulgaris [7]) [µg/mL] | log K [9] | MIC (Proteus vulgaris [11]) [µg/mL] | MIC [12] [µg/mL] | MIC (Pseudomonas aeruginosa [13]) [µg/mL] | MIC (Enterococcus hirae [14]) [µg/mL] | MIC (Bacillus spizizenii [15]) [µg/mL] | MIC [16] [µg/mL] | MIC (Staphylococcus aureus [17]) [µg/mL] | MIC (Escherichia coli [18]) [µg/mL] | MIC (Staphylococcus aureus [19]) [µg/mL] | MIC (Serratia marcescens [20]) [µg/mL] | MBC (Staphylococcus aureus [21]) [µg/mL] | MIC (Streptococcus pneumoniae [22]) [µg/mL] | other results
1 | CCn1cc(C(=O)O)c(=O)c2cc(F)c(N3CC[N+]4(CC3)CN3C(C)=CC(C)=C(C(=O)O)C3=N4)nc21.[Cl-] | 16 | 512 | 128 | 128 | 16 | 128 | 2 | -0.3984 | 1 | 64 | 512 | 16 | 16 | 128 | 128 | 8 | 128 | 64 | 128 | > 512 | Activity (HEK293 [8]): Non-Toxic; MIC (Escherichia coli [10]): 4 µg/mL; MBC (Enterococcus hirae [23]): 32 µg/mL; MBC (Escherichia coli [24]): 16 µg/mL; MBC [25]: 128 µg/mL; MBC (Staphylococcus aureus [26]): 128 µg/mL; Activity (HEK293 [27]): Non-Toxic; MIC (Staphylococcus aureus [28]): 128 µg/mL
2 | COc1c(N2CC[N+]3(CN4C(=N3)C(C(=O)O)=Cc3ccccc34)C(C)C2)c(F)cc2c(=O)c(C(=O)O)cn(C3CC3)c12.[Cl-] (stereo not given) | 32 | 128 | 16 | 64 | 0.5 | 32 | 4 | -0.1255 | 4 | 4 | 128 | > 512 | 32 | 32 | 16 | 0.25 | 32 | 64 | 16 | 128 | Activity (HEK293 [8]): Non-Toxic; MIC (Escherichia coli [10]): 0.125 µg/mL; MBC (Streptococcus pneumoniae [29]): 256 µg/mL; MBC (Escherichia coli [24]): 0.5 µg/mL; MBC [25]: 8 µg/mL; MBC (Staphylococcus aureus [26]): 32 µg/mL; Activity (HEK293 [27]): Non-Toxic; MIC (Staphylococcus aureus [28]): 16 µg/mL
3 | C[C@@H]1CN(c2c(F)c(N)c3c(=O)c(C(=O)O)cn(C4CC4)c3c2F)C[C@H](C)N1 [SPARFLOXACIN] | 0.063 (≈ 0.161 µM) | 0.125 (≈ 0.319 µM) | 0.063 (≈ 0.161 µM) | 1 (≈ 2.55 µM) | 0.032 (≈ 0.0815 µM) | 0.125 (≈ 0.319 µM) | 0.008 (≈ 0.0204 µM) | 0.1161 | 0.004 (≈ 0.0102 µM) | 0.032 (≈ 0.0815 µM) | 0.125 (≈ 0.319 µM) | 32 (≈ 81.5 µM) | 0.063 (≈ 0.161 µM) | 0.125 (≈ 0.319 µM) | 0.125 (≈ 0.319 µM) | 0.016 (≈ 0.0408 µM) | 0.125 (≈ 0.319 µM) | 0.5 (≈ 1.27 µM) | 0.25 (≈ 0.637 µM) | 0.25 (≈ 0.637 µM) | MBC (Streptococcus pneumoniae [29]): 128 µg/mL (≈ 326 µM); MBC (Enterococcus hirae [23]): 32 µg/mL (≈ 81.5 µM); MBC [25]: 0.032 µg/mL (≈ 0.0815 µM); MBC (Staphylococcus aureus [26]): 0.125 µg/mL (≈ 0.319 µM); MIC (Staphylococcus aureus [28]): 0.063 µg/mL (≈ 0.161 µM)
4 | CCn1cc(C(=O)O)c(=O)c2cc(F)c(N3CCNCC3)cc21 [NORFLOXACIN] | 0.125 (≈ 0.391 µM) | 0.25 (≈ 0.783 µM) | 1 (≈ 3.13 µM) | 0.25 (≈ 0.783 µM) | 0.063 (≈ 0.197 µM) | 2 (≈ 6.26 µM) | 0.016 (≈ 0.0501 µM) | 0.1033 | 0.016 (≈ 0.0501 µM) | 0.125 (≈ 0.391 µM) | 0.25 (≈ 0.783 µM) | 64 (≈ 200 µM) | 0.125 (≈ 0.391 µM) | 0.5 (≈ 1.57 µM) | 0.25 (≈ 0.783 µM) | 0.032 (≈ 0.1 µM) | 1 (≈ 3.13 µM) | 0.25 (≈ 0.783 µM) | 0.25 (≈ 0.783 µM) | 128 (≈ 401 µM) | MBC (Streptococcus pneumoniae [29]): > 512 µg/mL; MBC (Enterococcus hirae [23]): 64 µg/mL (≈ 200 µM); MBC [25]: 0.125 µg/mL (≈ 0.391 µM); MBC (Staphylococcus aureus [26]): 2 µg/mL (≈ 6.26 µM); MIC (Staphylococcus aureus [28]): 1 µg/mL (≈ 3.13 µM)
5 | CC1=CC(C)=C(C(=O)O)C2=N[N+]3(CCN(c4cc5c(cc4F)c(=O)c(C(=O)O)cn5C4CC4)CC3)CN12.[Cl-] | 8 | 128 | 128 | 64 | 8 | 64 | 2 | -0.3214 | 2 | 4 | 128 | > 512 | 8 | 64 | 128 | 8 | 32 | 64 | 128 | > 512 | Activity (HEK293 [8]): Non-Toxic; MIC (Escherichia coli [10]): 0.5 µg/mL; MBC (Escherichia coli [24]): 2 µg/mL; MBC [25]: 8 µg/mL; MBC (Staphylococcus aureus [26]): 32 µg/mL; Activity (HEK293 [27]): Non-Toxic; MIC (Staphylococcus aureus [28]): 128 µg/mL
6 | CCn1cc(C(=O)O)c(=O)c2cc(F)c(N3CC[N+]4(CN5C(C)=CC(C)=C(C(=O)O)C5=N4)C(C)C3)c(F)c21.[Cl-] (stereo not given) | 8 | > 512 | 128 | 64 | 8 | 64 | 1 | -0.4791 | 1 | 16 | 128 | > 512 | 8 | 32 | 64 | 4 | 128 | 64 | 64 | > 512 | Activity (HEK293 [8]): Non-Toxic; MIC (Escherichia coli [10]): 2 µg/mL; MBC (Escherichia coli [24]): 4 µg/mL; MBC [25]: 32 µg/mL; MBC (Staphylococcus aureus [26]): 128 µg/mL; Activity (HEK293 [27]): Non-Toxic; MIC (Staphylococcus aureus [28]): 128 µg/mL
